Measured values: patent US20180206495A1, “SUBSTITUTED ARYL AND HETEROARYL CARBOXYLIC ACID HYDRAZIDES OR SALTS THEREOF AND USE THEREOF TO INCREASE STRESS TOLERANCE IN PLANTS” (BAYER CROPSCIENCE AKTIENGESELLSCHAFT, priority 2015, published 2018)

Tests used:
Brassica napus = assay: In vivo analyses Part A: drought stress, spray application, visual damage scoring, Brassica napus
Description: (§1) Seeds of monocotyledonous and dicotyledonous crop plants were sown in sandy loam in wood-fiber or plastic pots, covered with soil or sand and cultivated in a greenhouse under good growth conditions. The trial plants were treated at the early leaf stage (BBCH10-BBCH13). To assure uniform water supply before commencement of stress, the potted plants were supplied with water by dam irrigation prior to substance application. The inventive compounds formulated in the form of wettable powders (WP) were sprayed onto the green parts of the plants as an aqueous suspension at an equivalent water application rate of 600 l/ha with addition of 0.2% wetting agent (e.g. agrotin). Substance application was followed immediately by stress treatment of the plants. For this purpose, the wood-fiber pots were transferred in plastic inserts in order to prevent them from subsequently drying out too quickly. Drought stress was induced by gradual drying out under the following conditions: “Day”: 14 hours with illumination at ˜26-30° C. “Night”: 10 hours without illumination at ˜18-20° C. The duration of the respective stress phases was guided mainly by the condition of the stressed control plants. It was ended (by re-irrigating and transfer to a greenhouse with good growth conditions) as soon as irreversible damage was observed on the stressed control plants. The end of the stress phase was followed by an about 4-7-day recovery phase, during which the plants were once again kept under good growth conditions in a greenhouse. The duration of the recovery phase was guided mainly by when the trial plants had attained a state which enabled visual scoring of potential effects, and is therefore variable. Once this juncture was reached, the intensities of damage were scored visually in comparison to untreated, unstressed controls of the same age. The damage intensity was at first assessed in per cent. These values were then used to calculate the efficacy of the test compounds by the following formula: [formula] EF: Efficacy DIs: Damage intensity of the stressed control plants DIt: Damage intensity of the stressed plants treated with test compound The values reported in tables A-1 to A-3 below are mean values from at least one trial with at least two repeats, showing the effects of selected compounds of the general formula (I) under drought stress on various crop plants.

Triticum aestivum [1] = assay: In vivo analyses Part A: drought stress, spray application, visual damage scoring, Triticum aestivum
Description: as §1

Zea mays = assay: In vivo analyses Part A: drought stress, spray application, visual damage scoring, Zea mays
Description: as §1

Triticum aestivum [2] = assay: In vivo analyses Part B: drought stress, spray application, appearance vs stressed control in categories, Triticum aestivum; design: key: 0: no positive effect; +: slight positive effect; ++: clear positive effect; +++: strong positive effect; details: dosage 250 g/ha
Description: Seeds of monocotyledonous and dicotyledonous crop plants were sown in sandy loam in plastic pots, covered with soil or sand and cultivated in a greenhouse under good growth conditions. The test plants are treated at the early leaf stage (BBCH10-BBCH13). To assure uniform water supply before commencement of stress, the potted plants were supplied with water by dam irrigation prior to substance application. The inventive compounds were first formulated as wettable powders (WP) or dissolved in a solvent mixture. The further dilution was effected with water supplemented with 0.2% wetting agent (e.g. agrotin). The finished spray liquor was sprayed onto the green parts of the plant at an equivalent water application rate of 600 l/ha. Substance application was followed immediately by stress treatment of the plants. Drought stress was induced by gradual drying out under the following conditions: “Day”: 14 hours with illumination at ˜26-30° C. “Night”: 10 hours without illumination at ˜18-20° C. The duration of the respective stress phases was guided mainly by the condition of the stressed control plants. It was ended (by re-irrigating and transfer to a greenhouse with good growth conditions) as soon as irreversible damage was observed on the stressed control plants. The end of the stress phase was followed by an about 4-7-day recovery phase, during which the plants were once again kept under good growth conditions in a greenhouse. The duration of the recovery phase was guided mainly by when the trial plants had attained a state which enabled visual scoring of potential effects, and was therefore variable. Once this juncture had been reached, the appearance of the plants treated with test substances was recorded in comparison to the stressed control plants by the following categories: • 0 no positive effect • + slight positive effect • ++ clear positive effect • +++ strong positive effect In order to rule out any influence on the effects observed by any fungicidal or insecticidal action of the test compounds, it was additionally ensured that the tests proceeded without fungal infection or insect infestation. The values reported in tables B-1 and B-2 below are mean values of the results from at least three repeats. Effects of selected compounds of the general formula (I) under drought stress according to the following tables B-1 and B-2: […]

| Compound | EF [%] (BRSNS) (Brassica napus; dosage 25 g/ha) | EF [%] (TRZAS) (Triticum aestivum [1]; dosage 25 g/ha) | EF [%] (ZEAMX) (Zea mays; dosage 250 g/ha) | EF [%] (TRZAS) (Triticum aestivum [1]; dosage 250 g/ha) | EF [%] (BRSNS) (Brassica napus; dosage 2.5 g/ha) | EF [%] (ZEAMX) (Zea mays; dosage 25 g/ha) | Effect (TRZAS) (Triticum aestivum [2]) |
| --- | --- | --- | --- | --- | --- | --- | --- |
| COc1c(C)cnc(CN(C(=O)c2ccc(Cl)cc2Cl)N(C)C)c1C [A12-37] | >5 | >5 |  |  |  |  |  |
| Cc1ccc(C(F)(F)F)c(C(=O)N(Cc2ccccn2)N(C)C)c1 [A13-21] | >5 |  | >5 | >5 |  |  |  |
| COc1c(C)cnc(CN(C(=O)c2ccccc2C(F)(F)F)N(C)C)c1C [A1-37] |  |  |  | >5 | >5 |  |  |
| CN(C)N(Cc1cccc([N+](=O)[O-])c1)C(=O)c1ccncc1 [C1-111] |  | >5 |  |  | >5 | >5 |  |
| COc1ccccc1C(=O)N(Cc1ccccn1)N(C)C [A8-21] | >5 |  | >5 | >5 |  |  |  |
| CN(C)N(Cc1nccc(Cl)c1Cl)C(=O)c1ccccc1C(F)(F)F [A1-40, N-[(3,4-Dichloropyridin-2-yl)methyl]-N′,N′-dimethyl-2-(trifluoromethyl)benzohydrazide] |  |  | >5 | >5 | >5 |  | ++ |
| Cc1c(OCC(F)(F)F)ccnc1CN(C(=O)c1cnccc1C(F)(F)F)N(C)C [B1-144] | >5 | >5 |  |  |  |  |  |
| CN(C)N(Cc1ccc(Br)cc1F)C(=O)c1ccc(Cl)cc1Cl [A12-44] | >5 |  | >5 | >5 |  |  |  |
